Numbering of substitutions follows the chain as printed. “Also recorded” adds a separate entry of the source.

Data on two molecules can be found in publication PMC10281575, “PfCRT mutations conferring piperaquine resistance in falciparum malaria shape the kinetics of quinoline drug binding and transport” (PLOS Pathogens, 2023).

Test [1] addresses T1, PfCRT^Dd2 (Plasmodium falciparum, UniProt Q8IBZ9, A220S/I356T/K76T/M74I/N326S/N75E/Q271E/R371I).
T1 sequence (Q8IBZ9 1-424 M74I/N75E/K76T/A220S/Q271E/N326S/I356T/R371I): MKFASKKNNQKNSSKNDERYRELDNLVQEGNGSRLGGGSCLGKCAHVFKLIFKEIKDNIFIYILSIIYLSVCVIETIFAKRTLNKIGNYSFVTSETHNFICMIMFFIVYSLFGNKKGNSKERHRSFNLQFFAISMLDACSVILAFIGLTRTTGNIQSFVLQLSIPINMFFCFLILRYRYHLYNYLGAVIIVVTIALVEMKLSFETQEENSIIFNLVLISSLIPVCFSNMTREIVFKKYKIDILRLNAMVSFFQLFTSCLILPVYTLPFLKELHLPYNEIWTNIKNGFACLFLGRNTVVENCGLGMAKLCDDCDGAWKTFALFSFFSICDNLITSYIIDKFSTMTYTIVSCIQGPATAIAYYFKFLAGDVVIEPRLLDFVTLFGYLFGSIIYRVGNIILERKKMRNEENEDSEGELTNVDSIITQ
Also noted: expressed in transfected cells; host or cells: Xenopus laevis oocytes injected with in vitro transcribed RNA (pSP64T). The conditions noted are these: cited from earlier work.

The target of another test is T2, PfCRT^Dd2_H97Y (Plasmodium falciparum, UniProt Q8IBZ9, A220S/H97Y/I356T/K76T/M74I/N326S/N75E/Q271E/R371I).
T2 construct: expressed in transfected cells; host or cells: Xenopus laevis oocytes injected with in vitro transcribed RNA (pSP64T)
T2 sequence (Q8IBZ9 1-424 M74I/N75E/K76T/H97Y/A220S/Q271E/N326S/I356T/R371I): T1 sequence (Q8IBZ9 1-424 M74I/N75E/K76T/A220S/Q271E/N326S/I356T/R371I) with H97Y
Briefly: Verapamil inhibition of PfCRT-mediated CQ and PPQ transport in oocytes, PfCRT^Dd2_H97Y. To be noted: 100 μM verapamil, 50 μM CQ or PPQ. It counts as cell-based. How it is done:
(§1) In all cases, the PfCRT-mediated CQ and PPQ transport was inhibited in the presence of 100 μM verapamil (S3 Fig).
(§2) Drug transport assays were performed as previously described. Briefly, measurements of radiolabeled drug uptake were made over 1 h, unless otherwise specified. […] Where specified, one or more unlabeled drugs were also present at the indicated concentrations. The direction of drug transport in the assays is from the extracellular medium (pH 6) into the oocyte cytosol (pH 7.2), which corresponds to the efflux of CQ or PPQ from the acidic digestive vacuole (pH 5.2) into the parasite cytosol (pH 7.2). The uptake assays were terminated by removing the oocytes from the reaction medium and washing them three times with 2 mL of ice-cold ND96 buffer. Each oocyte was transferred to a separate scintillation vial and lysed by the addition of 200 μL of a 5% SDS solution. The radioactivity in the sample was measured using a liquid scintillation analyser Tri-Carb 4910 TR (PerkinElmer). Water-injected oocytes were analyzed in parallel as a negative control. The buffer from each condition was measured in duplicate in parallel to each experiment to transform counts per minute into pmol of drug. Drug uptake attributable to PfCRT was determined by subtracting the background uptake from water-injected oocytes from that of PfCRT-expressing oocytes. In all cases, at least three independent experiments were performed on oocytes from different frogs, and for each condition in an experiment, measurements were made from 10 oocytes per treatment.
(§3) Supplementary file ppat.1011436.s006.tif: S3 Fig Verapamil inhibits PfCRT-mediated transport of CQ and PPQ. […] Left panels, data is shown as individual biological replicates (coloured symbols) overlaid onto bars representing the Mean ± S.E.M. (error bars). A one-tailed Student’s t-test was performed between untreated (no VP) and treated (+ 100 μM VP) samples, and the obtained p values are shown. Right panels, the uptake in VP-treated samples was divided by the uptake in their corresponding untreated pairs and subtracted from 100% to get the percentage of uptake inhibition mediated by the presence of 100 μM verapamil in the extracellular medium. Error bars are S.E. (TIF) Click here for additional data file.

A further test concerns the target T3, PfCRT^Dd2_F145I (Plasmodium falciparum, UniProt Q8IBZ9, A220S/F145I/I356T/K76T/M74I/N326S/N75E/Q271E/R371I).
T3 construct: expressed in transfected cells; host or cells: Xenopus laevis oocytes injected with in vitro transcribed RNA (pSP64T)
T3 sequence (Q8IBZ9 1-424 M74I/N75E/K76T/F145I/A220S/Q271E/N326S/I356T/R371I): T1 sequence (Q8IBZ9 1-424 M74I/N75E/K76T/A220S/Q271E/N326S/I356T/R371I) with F145I
Briefly: Verapamil inhibition of PfCRT-mediated CQ and PPQ transport in oocytes, PfCRT^Dd2_F145I. To be noted: 100 μM verapamil, 50 μM CQ or PPQ. It counts as cell-based. How it is done:
as §1
as §2, with “In all cases, at least three independent experiments were performed on oocytes from different frogs, and for each condition in an experiment, measurements were made from 10 oocytes per treatment.” left out

The next test addresses T4, PfCRT^Dd2_M343L (Plasmodium falciparum, UniProt Q8IBZ9, A220S/I356T/K76T/M343L/M74I/N326S/N75E/Q271E/R371I).
T4 construct: expressed in transfected cells; host or cells: Xenopus laevis oocytes injected with in vitro transcribed RNA (pSP64T)
T4 sequence (Q8IBZ9 1-424 M74I/N75E/K76T/A220S/Q271E/N326S/M343L/I356T/R371I): T1 sequence (Q8IBZ9 1-424 M74I/N75E/K76T/A220S/Q271E/N326S/I356T/R371I) with M343L
Nature of the test: Verapamil inhibition of PfCRT-mediated CQ and PPQ transport in oocytes, PfCRT^Dd2_M343L. The conditions noted are these: 100 μM verapamil, 50 μM CQ or PPQ. It counts as cell-based. How it is done: as §1, §2, §3

The target of a further test is T5, PfCRT^Dd2_G353V (Plasmodium falciparum, UniProt Q8IBZ9, A220S/G353V/I356T/K76T/M74I/N326S/N75E/Q271E/R371I).
T5 construct: expressed in transfected cells; host or cells: Xenopus laevis oocytes injected with in vitro transcribed RNA (pSP64T)
T5 sequence (Q8IBZ9 1-424 M74I/N75E/K76T/A220S/Q271E/N326S/G353V/I356T/R371I): T1 sequence (Q8IBZ9 1-424 M74I/N75E/K76T/A220S/Q271E/N326S/I356T/R371I) with G353V
Briefly: Verapamil inhibition of PfCRT-mediated CQ and PPQ transport in oocytes, PfCRT^Dd2_G353V. To be noted: 100 μM verapamil, 50 μM CQ or PPQ. It counts as cell-based. How it is done:
as §1, §2, §3

Test [2] addresses T1, PfCRT^Dd2. Briefly: Verapamil inhibition of PfCRT-mediated CQ and PPQ transport in oocytes, PfCRT^Dd2. The arrangement: expressed in transfected cells; host or cells: Xenopus laevis oocytes injected with in vitro transcribed RNA (pSP64T). It counts as cell-based. To be noted: 100 μM verapamil, 50 μM CQ or PPQ. How it is done:
as §1, §2, §3

In the case of `C=C[C@H]1C[N@@]2CC[C@H]1C[C@H]2[C@H](O)c1ccnc2ccc(OC)cc12` [quinine], the “inhibition model versus CQ on PfCRT” value on PfCRT^Dd2 [1] was “partial mixed-type inhibition”.
Take `COc1ccc(CCN(C)CCCC(C#N)(c2ccc(OC)c(OC)c2)C(C)C)cc1OC` (stereo not shown) [verapamil]: the “PfCRT-mediated CQ and PPQ transport in the presence of verapamil” value on PfCRT^Dd2_H97Y, at PfCRT^Dd2_F145I, on PfCRT^Dd2_M343L, at PfCRT^Dd2_G353V and at PfCRT^Dd2 [2] was “inhibited” throughout. The “inhibition model versus CQ on PfCRT” value on PfCRT^Dd2 [1] is reported as “partial mixed-type inhibitor; also recorded: mixed-type inhibition”.
